# In patent US6495576B2, “Aminal diones as potassium channel openers” (Abbott Laboratories, priority 2001, dated 2002):
# System: Landrace pig bladder strips
# Experiment: Functional potassium channel opening activity in isolated, field-stimulated bladder strips
# Conditions: for Index: ED50 for P1075 divided by ED50 for test agonist in a given tissue, averaged; for EC50: amount causing 50% of the agent's maximal response, field stimulation 0.05 Hz, 0.5 ms, 20 volts, read-out: ED50 (the source's name); for Efficacy (%P1075) / Emax: maximal efficacy on stimulated twitch, relative to P1075; for Emax: Sus scrofa
# Protocol: Compound were evaluated for functional potassium channel opening activity using tissue strips obtained from Landrace pig bladders.
# Landrace pig bladders were obtained from female Landrace pigs of 9-30 kg. Landrace pig were euthanized with an intraperitoneal injection of pentobarbital solution, Somlethal ®, J. A. Webster Inc. Sterling Mass. The entire bladder was removed and immediately placed into Krebs Ringer bicarbonate solution (composition, mM: NaCl, 120; NaHCO3, 20; dextrose, 11; KCl, 4.7; CaCl2, 2.5; MgSO4, 1.5; KH2PO4, 1.2; K2EDTA, 0.01, equilibrated with 5% CO2/95% O2 pH 7.4 at 37° C.). Propranolol (0.004 mM) was included in all of the assays to block β-adrenoceptors. The trigonal and dome portions were discarded. Strips 3-5 mm wide and 20 mm long were prepared from the remaining tissue cut in a circular fashion. The mucosal layer was removed. One end was fixed to a stationary glass rod and the other to a Grass FT03 transducer at a basal preload of 1.0 gram. Two parallel platinum electrodes were included in the stationary glass rod to provide field stimulation of 0.05 Hz, 0.5 milli-seconds at 20 volts. This low frequency stimulation produced a stable twitch response of 100-500 centigrams. Tissues were allowed to equilibrate for at least 60 minutes and primed with 80 mM KCl. A control concentration response curve (cumulative) was generated for each tissue using the potassium channel opener P1075 as the control agonist. […] After a 60 minute rinsing period, a concentration response curve (cumulative) was generated for the test agonist in the same fashion as that used for control agonist P1075. The maximal efficacy of each compound (expressed as % relative to P1075) is reported. The amount of agent necessary to cause 50% of the agent's maximal response (ED50) was calculated using “ALLFIT” (DeLean et al., Am. J. Physiol., 235, E97 (1980)), hereby incorporated by reference. Agonist potencies were also expressed as an index relative to P1075. The index was calculated by dividing the ED50 for P1075 by the ED50 for the test agonist in a given tissue. Each tissue was used for only one test agonist, and the indices obtained from each tissue were averaged to provide an average index of potency.
EC50 [µM],Compound,Index,Efficacy (%P1075),Emax [%]
1.2,"CC(C)(C)C(NC(=O)c1cc(F)cc(F)c1)Nc1c(Nc2cccnc2)c(=O)c1=O (single isomer, unassigned; (+)) [Example 49, (+)N-(1-{[3.4-Dioxo-2-(3-pyridinylamino)-1-cyclobuten-1-yl]amino}-2,2-dimethylpropyl)-3,5-difluorobenzamide]",0.071,100,
2.2,"CC(C)(C)C(NC(=O)c1cccc(Cl)c1)Nc1c(Nc2cccnc2)c(=O)c1=O (single isomer, unassigned; (+)) [Example 56, (+) 3-Chloro-N-(1-{[3.4-dioxo-2-(3-pyridinylamino)-1-cyclobuten-1-yl]amino}-2,2-dimethylpropyl)benzamide]",0.028,94,
6.8,"CC(C)(C)C(NC(=O)c1cc(F)cc(F)c1)Nc1c(Nc2cccnc2)c(=O)c1=O (single isomer, unassigned; (-)) [Example 50, (−)N-(1-{[3,4-Dioxo-2-(3-pyridinylamino)-1-cyclobuten-1-yl]amino}-2,2-dimethylpropyl)-3,5-difluorobenzamide]",0.14,,79
4,"CC(C)(C)C(NC(=O)c1cccc(Cl)c1)Nc1c(Nc2cccnc2)c(=O)c1=O (single isomer, unassigned; (-)) [Example 57, (−) 3-Chloro-N-(1-{[3,4-dioxo-2-(3-pyridinylamino)-1-cyclobuten-1-yl]amino}-2,2-dimethylpropyl)benzamide]",0.015,,81
,"CC(C)(C)C(NC(=O)c1ccc(I)cc1)Nc1c(Nc2cccnc2)c(=O)c1=O (stereo not drawn) [Example 3, N-(1-{[3,4-Dioxo-2-(3-pyridinylamino)-1-cyclobuten-1-yl]amino}-2,2-dimethylpropyl)-4-iodobenzamide]",0.062,,
,"CC(C)(C)C(NC(=O)c1cccc(Cl)c1)Nc1c(Nc2cccnc2)c(=O)c1=O (stereo not drawn) [Example 5, 3-chloro-N-(1-{[3,4-Dioxo-2-(3-pyridinylamino)-1-cyclobuten-1-yl]amino}-2,2-dimethylpropyl)benzamide]",0.059,,
,"Cc1cccc(C(=O)NC(Nc2c(Nc3cccnc3)c(=O)c2=O)C(C)(C)C)c1 (stereo not drawn) [Example 6, N-(1-{[3,4-Dioxo-2-(3-pyridinylamino)-1-cyclobuten-1-yl]amino}-2,2-dimethylpropyl)-3-methylbenzamide]",0.067,,
,"CC(C)(C)C(NC(=O)c1cccc(F)c1)Nc1c(Nc2cccnc2)c(=O)c1=O (stereo not drawn) [Example 7, N-(1-{[3,4-Dioxo-2-(3-pyridinylamino)-1-cyclobuten-1-yl]amino}-2,2-dimethylpropyl)-3-fluorobenzamide]",0.025,,
,"CC(C)(C)C(NC(=O)c1cccc(I)c1)Nc1c(Nc2cccnc2)c(=O)c1=O (stereo not drawn) [Example 8, N-(1-{[3,4-Dioxo-2-(3-pyridinylamino)-1-cyclobuten-1-yl]amino}-2,2-dimethylpropyl)-3-iodobenzamide]",0.047,,
,"CC(C)(C)C(NC(=O)c1cc(Cl)cc(Cl)c1)Nc1c(Nc2cccnc2)c(=O)c1=O (stereo not drawn) [Example 12, 3,5-Dichloro-N-(1-{[3,4-dioxo-2-(3-pyridinylamino)-1-cyclobuten-1-yl]amino}-2,2-dimethylpropyl)benzamide]",0.12,,
,"COc1cc(OC)cc(C(=O)NC(Nc2c(Nc3cccnc3)c(=O)c2=O)C(C)(C)C)c1 (stereo not drawn) [Example 13, N-(1-{[3,4-dioxo-2-(3-pyridinylamino)-1-cyclobuten-1-yl]amino}-2,2-dimethylpropyl)-3,5-dimethoxybenzamide]",0.57,,
,"CC(C)(C)C(NC(=O)c1cc(F)cc(F)c1)Nc1c(Nc2cccnc2)c(=O)c1=O (stereo not drawn) [Example 16, N-(1-{[3,4-Dioxo-2-(3-pyridinylamino)-1-cyclobuten-1-yl]amino}-2,2-dimethylpropyl)-3,5-difluorobenzamide]",0.046,,
,"CCC(CC)C(NC(=O)c1ccc(Cl)cc1)Nc1c(Nc2cccnc2)c(=O)c1=O (stereo not drawn) [Example 21, 4-Chloro-N-(1-{[3,4-dioxo-2-(3-pyridinylamino)-1-cyclobuten-1-yl]amino}-2-ethylbutyl)benzamide]",0.092,,
